The values below come from BindingDB's records for patent US10174013 (Selvita S.A., 2019).

The target of data set [1] is Potassium voltage-gated channel subfamily H member 2 (Homo sapiens, UniProt Q12809). Description: Determination of a Possible Activity on hERG. For orientation: hERG is a cardiac potassium channel; its block is linked to QT prolongation.
Procedure: In order to establish whether the compounds of the present invention act on hERG, the following experiment was carried out.The in vitro effects of the compounds indicated in Table 5 on the hERG potassium channel current (a surrogate for Iκr, the rapidly activating, delayed rectifier cardiac potassium current) expressed in mammalian cells were evaluated at room temperature using the QPatch HT (Sophion Bioscience A/S, Denmark), an automatic parallel patch clamp system. Each compound indicated in Table 5 was evaluated at 0.1, 1, 3, 10 and 30 μM with each concentration tested in a minimum of two cells (n≥2). The duration of exposure to each compound concentration was 3 minutes.
Data set [2] concerns the target Receptor-type tyrosine-protein kinase FLT3 (Homo sapiens, UniProt P36888). Nature of the data set: FLT3 Kinase assay. Here is the method: (§1) Selected compounds were also tested for their binding properties against FLT3 kinase mutants using suitable in vitro assays (performed according to standard assays at DiscoveRx Corporation). The compounds show strong binding to the main oncogenic mutants of the FLT3 kinase.

Data set [3] addresses Receptor-type tyrosine-protein kinase FLT3 [D835H] (Homo sapiens, UniProt P36888, D835H). Description: FLT3 Kinase assay. Here is the method:
as §1

The target in data set [4] is Receptor-type tyrosine-protein kinase FLT3 [D835Y] (Homo sapiens, UniProt P36888, D835Y). Nature of the data set: FLT3 Kinase assay. Here is the method:
as §1

Each structure is given as a SMILES string.

Sequence of Potassium voltage-gated channel subfamily H member 2 (Q12809 whole entry): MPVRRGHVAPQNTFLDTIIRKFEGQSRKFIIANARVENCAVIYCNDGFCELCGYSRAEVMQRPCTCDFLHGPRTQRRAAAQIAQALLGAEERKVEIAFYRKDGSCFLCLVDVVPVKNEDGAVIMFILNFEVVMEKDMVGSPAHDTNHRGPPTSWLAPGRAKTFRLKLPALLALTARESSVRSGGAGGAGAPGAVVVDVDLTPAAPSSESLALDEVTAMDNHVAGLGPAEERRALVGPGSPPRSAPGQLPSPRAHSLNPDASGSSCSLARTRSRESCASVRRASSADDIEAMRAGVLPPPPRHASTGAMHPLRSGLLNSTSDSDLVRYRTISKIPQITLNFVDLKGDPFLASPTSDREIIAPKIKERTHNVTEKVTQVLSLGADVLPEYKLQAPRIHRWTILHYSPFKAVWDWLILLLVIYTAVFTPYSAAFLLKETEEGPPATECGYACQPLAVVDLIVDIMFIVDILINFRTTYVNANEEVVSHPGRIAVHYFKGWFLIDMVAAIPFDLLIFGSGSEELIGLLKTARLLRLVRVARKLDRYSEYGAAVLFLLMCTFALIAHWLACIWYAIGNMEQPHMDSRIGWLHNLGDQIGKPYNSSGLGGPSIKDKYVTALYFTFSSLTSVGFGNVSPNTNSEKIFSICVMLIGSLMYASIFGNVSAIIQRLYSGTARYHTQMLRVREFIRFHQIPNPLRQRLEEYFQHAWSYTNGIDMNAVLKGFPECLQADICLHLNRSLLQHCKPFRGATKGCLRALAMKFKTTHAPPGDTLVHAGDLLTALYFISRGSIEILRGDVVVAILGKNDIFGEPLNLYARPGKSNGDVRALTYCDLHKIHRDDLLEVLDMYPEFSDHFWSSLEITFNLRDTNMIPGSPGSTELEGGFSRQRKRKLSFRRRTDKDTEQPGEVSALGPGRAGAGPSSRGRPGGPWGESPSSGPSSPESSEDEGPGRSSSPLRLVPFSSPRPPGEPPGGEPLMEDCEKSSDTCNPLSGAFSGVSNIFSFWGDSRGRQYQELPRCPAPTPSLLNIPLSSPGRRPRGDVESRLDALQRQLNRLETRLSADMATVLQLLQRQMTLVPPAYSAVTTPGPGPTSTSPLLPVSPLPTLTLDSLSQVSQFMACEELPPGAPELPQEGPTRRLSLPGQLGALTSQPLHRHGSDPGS

The compound `CCn1c(N2CCNCC2)nc2c([N+](=O)[O-])c(Br)c(Br)cc21` [US10174013, Example 1A] came in with an IC50 in data set [1] of 20400 nM.
For `CC(C)n1c(N2CCNCC2)nc2c([N+](=O)[O-])c(Br)c(Br)cc21` [US10174013, Example 2A], the Kd stood at 130 nM in data set [2], 28 nM in data set [3] and 15 nM in data set [4].

A word on the IC50: it is the concentration that gives 50% inhibition. High values mean weaker potency, low ones greater potency. A word on the Kd: it is the constant that tells how readily two partners part at equilibrium.
